Data on two molecules can be found in patent US20240335404A1, “SUBSTITUTED ESTERS CONTAINING POLYOLS AND SACCHARIDES FOR TREATING HEPATOTOXICITY AND FATTY LIVER DISEASES” (SINEW PHARMA INC., priority 2015, published 2024).

In test [1] the test system is Liver Injuries Induced by CCl4. Put plainly: Liver injuries induced by CCl4 in mice (GSP, AST/ALT, HAI). Format: in vivo. As for the experimental part: In the normal control, animals were administered with normal saline by intraperitoneal injection. In the control group of CCl4 induced liver injuries, animals were intraperitoneally injected with 10 ml/kg CCl4 (40% in corn oil) to induce hepatotoxicity. In the experimental group, animals were intraperitoneally injected with 10 ml/kg CCl4 (40% in corn oil) to induce hepatotoxicity, and 4 hours later, different ingredients of the present invention were administered by tube feeding. Blood was collected from the mice before administration with the ingredients of the present invention or at 24 hours after administration with the ingredients of the present invention for AST/ALT assays. Finally, animals were sacrificed at day 2 and blood were collected for AST/ALT assay and histological analysis was performed.
On the other hand, other experimental groups of mice were fed with the ingredients of the present invention for 12 weeks and the mice were subjected to GSP tests.
(§1) Liver damage is quantified by measuring plasma AST and ALT activity. AST and ALT are common indicators of hepatotoxicity and are measured by using the Synchron LXi 725 system (Beckman Instruments, U.S.).
Following scarification of the rats, histological analysis was performed. Liver samples were fixed with 10% phosphate-buffered formalin, dehydrated an embedded in paraffin, Sections were prepared in 5 μm thickness and then stained with hematoxylin and eosin and subjected to Periodic acid Schiff stain (PAS). The stained sections were observed under the optic microscope.
After the study was completed, all rats were subjected to GSP test. Rats were i.v. injected with 0.4 g/ml BW galactose solution 0.5 g/kg within 30 seconds and one blood sample was collected at 5, 10, 15, 30, 45 and 60 minutes post injection from the tail vein. Colorimetric galactose dehydrogenase is used to quantify the concentration of galactose and the test concentration ranges from 50 to 1,000 μg/ml. The within-day variation of each concentration is calculated using standard deviation and coefficient of variation (CV) and the maximum allowable coefficient of variation is 10% CV, whereas day-to-day variation is examined by comparing the slope and intercept of calibration curves. The GSP is the blood galactose concentration obtained 60 seconds after stopping the 30-second injection.
All data are represented in mean±standard deviation (SD) and the results are calculated using ANOVA to determine the significance. Statistical Package of the Social Science program (Version 13, SPSS Inc.) is used for calculations followed by post hoc test to examine the least significant difference for multiple comparisons so as to confirm the significant differences between groups and the average difference between groups was significant p<0.05.

Test [2] deals with Liver Injuries Induced by APAP. In words: Liver injuries induced by APAP in rats (GSP, AST/ALT, HAI, survival). Format: in vivo, SD (Sprague-Dawley) rats. As to conditions: APAP 2,000 mg/kg; for histological analysis of liver tissue, H&E: FIG. 4. How it is done:
Male SD (Sprague-Dawley) rats weighing 175-280 g were purchased from the National Laboratory Animal Center (NLAC), Taiwan. The study was conducted in accordance with the Guidelines for Conducting Animal Studies of the National Health Research Institute and all rats were placed in the air/humidity controlled environment under the 12 hours of day/12 hours of night cycle and with unlimited water and food supply. During the course of the study, the weights of rats were monitored continuously with normal water supply.
In the normal control (Group 1), animals were not fed with APAP. In the control group of APAP-induced liver injuries (Group 2), animals were fed with a single dose of APAP in the amount of 2,000 mg per kilogram of body weight to induce hepatotoxicity. In the positive control group of treatment with NAC (Group 3), animals were fed with a single dose of APAP in the amount of 2,000 mg per kilogram of body weight to induce hepatotoxicity, and 4 hours later, a 24-hour treatment period by tube feeding was started, including first administration of 140 mg of NAC (per kilogram of body weight) and later administration of 70 mg of NAC (per kilogram of body weight) every 4 hours for five times. In the experimental group (Group 4), animals were fed with a single dose of APAP in the amount of 2,000 mg per kilogram of body weight to induce hepatotoxicity, and 4 hours later, a 24-hour treatment period by tube feeding was started, including six dosing with the ingredients of the present invention every 4 hours, as follows: • (a) (Group 4.1): administration of mannitol at a dose less than or equivalent to 100 mg per person every 4 hours for 24 hours, • (b) (Group 4.2): administration of double dose of mannitol as in Group 4.1 every 4 hours for 24 hours, • (c) (Group 4.3): administration of sucralose at a dose less than or equivalent to 100 mg per person every 4 hours for 24 hours, • (d) (Group 4.4): administration of double dose of sucralose of Group 4.3 every 4 hours for 24 hours, • (e) (Group 4.5): administration of a combination of 0.5 times the dose of mannitol as in Group 4.1 and 0.5 times the dose of sucralose as in Group 4.3 per kilogram of body weight every 4 hours for 24 hours, • (f) (Group 4.6): administration of a combination of the dose of mannitol as in Group 4.1 and the dose of sucralose as in Group 4.3 every 4 hours for 24 hours, • (g) (Group 4.7): administration of a combination of 1.5 times the dose of mannitol as in Group 4.1 and 1.5 times the dose of sucralose as in Group 4.3 every 4 hours for 24 hours, • (h) (Group 4.8): administration of a combination of double dose of mannitol as in Group 4.1 and double dose of sucralose as in Group 4.3 every 4 hours for 24 hours, and • (i) (Group 4.9): first administration of 140 mg of NAC per kilogram of body weight and later administration of a combination of 70 mg of NAC plus double dose of mannitol as in Group 4.1 and double dose of sucralose as in Group 4.3 every 4 hours for five times.
After the 24-hour treatment period, blood was collected from the tail artery of the rats for AST/SLT assays. Subsequently, rats were subjected to GSP tests. Finally, rats were sacrificed and histological analysis was performed.
After completion of the treatments, rats were sacrificed under ether anesthesia, and blood was collected from the tail artery of the rats and placed in a test tube containing EDTA. The plasma was centrifuged at 13,000 at 4° C. for 15 minutes and the isolated plasma was transferred to Eppendorf tubes in aliquots and stored at −80° C.
as §1
Following scarification of the rats, histological analysis was performed.

The mark [3] stands for this setting: CCl4-induced liver injuries, dose less than or equivalent to 100 mg per person.
Where [4] appears, read: dose less than or equivalent to 100 mg per person (mannitol, sucralose: × 6).
Where [5] appears, read: dose less than or equivalent to 100 mg per person (mannitol, sucralose: × 6), Day 14.
[6] abbreviates: double dose of Group 4.1 / Group 4.3, × 6.
Where [7] appears, read: double dose of Group 4.1 / Group 4.3, × 6, Day 14.

As to `OC[C@@H](O)[C@@H](O)[C@H](O)[C@H](O)CO` [Mannitol], in test [1] (setting [3]), the ALT turned out to be 77 ± 22 IU/L, the AST stood at 91 ± 28 IU/L, the GSP worked out at 290 ± 78 mg/L and the “Total HAI score” value is listed as 0.8 ± 0.5. Besides, in test [1] (mice, CCl4), the “effect on CCl4-induced liver injuries” value is “liver injuries can be improved”. Further, in test [2], the “effect on APAP-induced liver injuries and survival rate” value was “liver injuries and survival rate can be improved”; the “histological analysis of liver tissue, H&E” value was “hepatocytes are relatively intact with visible nucleus and less vacuolization”. In test [2] (setting [4]), the ALT was 209 ± 16 IU/L, the AST was determined as 455 ± 78 IU/L, the GSP is listed as 565 ± 177 mg/L and the “Total HAI score” value is reported as 4.0 ± 0.0. Moreover, the “Survival (Day 14, n/n)” value in test [2] (setting [5]) is listed as 1/3. Besides, in test [2] (setting [6]), the ALT was 166 ± 15 IU/L, the AST stood at 300 ± 40 IU/L, the GSP stood at 354 ± 56 mg/L and the “Total HAI score” value is 4.0 ± 1.0. For the same molecule, in test [2] (setting [7]), the “Survival (Day 14, n/n)” value is recorded as 3/3.

`OC[C@H]1O[C@H](O[C@]2(CCl)O[C@H](CCl)[C@@H](O)[C@@H]2O)[C@H](O)[C@@H](O)[C@H]1Cl` [Sucralose]: in test [2], the “effect on APAP-induced liver injuries and survival rate” value was “liver injuries and survival rate can be improved”; the “histological analysis of liver tissue, H&E” value is “hepatocytes are relatively intact with visible nucleus and less vacuolization”. Further, in test [2] (setting [4]), the ALT is recorded as 154 ± 49 IU/L, the AST was 331 ± 41 IU/L, the GSP was determined as 332 ± 42 mg/L and the “Total HAI score” value is 4.0 ± 1.0. Moreover, the “Survival (Day 14, n/n)” value in test [2] (setting [5]) is 3/3. For the same molecule, in test [2] (setting [6]), the ALT is on record as 136 ± 48 IU/L, the AST was 277 ± 78 IU/L, the GSP worked out at 309 ± 54 mg/L and the “Total HAI score” value was determined as 3.0 ± 1.0. The “Survival (Day 14, n/n)” value in test [2] (setting [7]) was 3/3.
